The source of these data is paper PMC11005426 (mBio, 2024).

SMILES strings stand for the structures.

This assay concerns the target T1, ASFV topo II ATPase domain (African swine fever virus, UniProt A0A2X0THW2).
T1 construct: gene P1192R CDS
The following applies: Mg2+; ATP-binding site; 0.5 mM AMPPNP, 5 mM MgCl2, HEPES pH 7.5.

Take `Nc1ncnc2c1ncn2[C@@H]1O[C@H](COP(=O)(O)OP(=O)(O)NP(=O)(O)O)[C@@H](O)[C@H]1O` [AMPPNP]: the “X-ray crystal structure, 2.20 A” value is “crystal structure of the isolated ATPase domain from ASFV topo II in complex with AMPPNP”.
